According to patent US20090252754A1, “Vaccines containing the hiv tat protein as an adjuvant for the enhancement of cytotoxic t-cell responses” (priority 2003, published 2009):

Experiments:
[1] = system: proteasome subunits (α2, PA28α, LMP2, LMP7, MECL1) in MIN and MON LCL's; assay: Western blot of proteasome subunits in lymphoblastoid cell lines expressing or treated with Tat; format: cell-based, human
Description: PG13 murine amphotropic packaging cell line^54 was cultured in DMEM supplemented with 10% FCS. Jurkat T cell transfectants (pRPneo-c and pRPneo-c-Tat)^22 were cultured in RPMI 1640 medium, supplemented with 10% FCS and 800 μg/ml neomycin (Sigma). Lymphoblastoid cell lines (LCL) were established by in vitro infection of normal B-lymphocytes from healthy donors with the B95.8 strain of EBV. LCL's were cultured in RPMI 1640 medium supplemented with 10% FCS.
MIN and MON LCL's were transduced with pBabePuro-Tat (MIN-Tat and MON-Tat) or pBabePuro (MIN-0 and MON-0) recombinant retroviruses by co-cultivation with packaging cell lines using transwell-clear tissue culture membranes. Subconfluent PG13 pBabePuro and PG13 pBabePuro-Tat cells, grown in the lower chamber, were co-cultivated in the presence of 8 μg/ml polybrene (Sigma) with MIN or MON LCL's (3×10^6/well) added to the upper chamber in 2.5 ml of RPMI 1640 medium supplemented with 10% FCS. After 48 hrs of co-cultivation, cells were harvested from the membranes and grown in culture medium containing puromycin (0.3 μg/ml) for 6 weeks. All cell lines were characterised by DNA-PCR, RT-PCR and Northern blot analysis.
Equal amounts of proteins were loaded on a 12% SDS-PAGE gel and electroblotted onto Protran nitrocellulose membranes (Schleicher & Schuell, Keene, Hampshire, USA). The blots were probed with antibodies specific for α2, LMP2, LMP7, MECL1, and PA28α subunits (Affinity, Exeter, UK) and developed by enhanced chemiluminescence (ECL, Amersham Pharmacia Biotech, Uppsala, SW).
To test the effect on proteasomes in cells after the up-take of exogenous Tat protein, MIN and MON LCL's were cultured in the absence or presence of increasing concentrations of biologically active Tat protein for 24 hours at 37° C. After treatment, the expression of the different subunits was analysed and compared to that of untreated cells. […] However, treatment with 0.1-1 μg/ml of Tat determined a down-regulation of LMP2 and an up-regulation of LMP7 and MECL1 as compared to untreated cells (FIG. 4).

[2] = system: proteasomes purified from MIN-Tat and MIN-0; assay: In vitro degradation of CLG+5 epitope precursor by purified proteasomes (HPLC, IFN-γ ELISPOT of fractions); format: biochemical, human
Description: 500 μg of synthetic peptide were incubated with 127 μg of purified proteasomes in 300 μl of buffer (25 mM Tris HCL pH 7.4, 5 mM MgCl2, 500 μM EDTA pH 8.0, 1 mM DTT, 2 mM ATP) at 37° C. At the indicated time points, 60 μl of sample were collected and the reaction was stopped by adding 2 volumes of ethanol at 0° C.
Digestion mixtures were centrifuged at 5000 rpm for 5 minutes. 80 μl of supernatant were collected and peptide digests were separated by reverse-phase HPLC at the flow rate of 0.7 ml/min, as follows: linear gradient of 0-100% of solution B (acetonitrile 100% with 0.1% TFA) for 25 min, followed by linear gradient of 0-100% for solution A (water 100% with 0.1% TFA) for 5 min. The fractionation was simultaneously monitored at 210 and 280 nm. […]
Plates were incubated for 24 h at 37° C., 5% CO2 and then washed three times with PBS and three times with washing buffer (PBS 0.05% Tween 20) before 100 μl of biotinylated anti-IFN-γ MAb (1 μg/ml; Endogen, Woburn, Mass.) were added, and incubated at 37° C. for 60 min. […] Wells were washed, and individual IFN-γ producing cells were detected using ABC chromogen kit (Sigma, Saint Louise, Mo.). IFN-γ-secreting T cells were counted by direct visualisation. The number of specific IFN-γ-secreting T cells, expressed as spot-forming cells (SFC) per 10^6 cells, was calculated by subtracting the negative control value. […]

[3] = LCL's expressing endogenous Tat vs control cells
[4] = LCL's treated with 0.1-1 μg/ml of Tat, 24 hours, vs untreated

Tat: HIV-1 Tat protein from HTLV type IIIB isolate, expressed in E. Coli or endogenously in cells; wild type SEQ ID NO 284
proteasome expression (α2-subunit) ([1]; LCL's expressing endogenous Tat (MIN-Tat, MON-Tat) vs control cells): No difference | expression of LMP2 [1, 3]: marked down-regulation | expression of LMP7 [1, 3]: up-regulation | expression of MECL1 [1, 3]: up-regulation | expression of PA28α regulator [1, 3]: no differences | expression of LMP2 [1, 4]: down-regulation | expression of LMP7 [1, 4]: up-regulation | expression of MECL1 [1, 4]: up-regulation | expression of the α2-subunit ([1]; MIN and MON LCL's cultured with exogenous Tat protein, 24 hours, vs untreated): No difference | degradation of the CLG+5 peptide precursor ([2]; proteasomes from Tat-expressing cells (MIN-Tat) vs empty vector (MIN-0)): more efficiently | generation of the immunogenic CLG peptide ([2]; proteasomes from Tat-expressing cells, 120 min digests, CLG-specific CTL ELISPOT): generate with more efficiency
